Source: patent EP0101641A2, “Sulfonylamino-aza-bicyclo-alkyl derivatives” (BEECHAM GROUP PLC, priority 1982, dated 1984)

What was measured:
Assay type in all cases: in vivo
intragastric pressure = assay: Increase in intragastric pressure (peripheral dopamine blockade) in conscious restrained rats; design: key: A = active; IA = inactive; settings: rat
Description: Increase in intragastric pressure - peripheral dopamine blockade
Intragastric pressure changes were recorded from previously starved conscious but restrained rats using a saline filled catheter inserted into the lumen of the stomach via a permanent gastric fistula. The catheter was connected to a physiological pressure transducer and pressure changes recorded on a hot wire pen recorder. In each animal a pre-dose period of 40 minutes was allowed to obtain a measure of spontaneous activity. An index of activity was obtained by measuring the average height of pressure waves during 10 minute periods. Values for 4 such periods were obtained during assessment of spontaneous activity and for 40 minute period after administration of compound. Student's "T" test was applied to the difference in average values obtained for spontaneous and post compound activity.

vomiting response = assay: Anti-emetic activity in the dog (apomorphine-induced vomiting); design: key to Anti-emetic: A = active; IA = inactive; settings: for Anti-emetic: at 0.1 mg/kg s.c., 30 minutes before apomorphine HC1 0.1 mg/kg s.c.; for ED50: Canis lupus familiaris, sc, s.c. 30 minutes before apomorphine HC1 0.1 mg/kg s.c.
Description: Anti-emetic activity in the dog
Compounds were administered subcutaneously 30 minutes prior to administration of a standard dose of apomorphine HC1 (0.1 mg/kg subcutaneously) and the vomiting response compared to that obtained when the same animals were dosed with apomorphine HC1 and vehicle only.

Dopamine Receptor = assay: Inhibition of apomorphine induced climbing in the mouse (central dopamine receptor blocking activity); design: key to CNS (Climbing): A = active; IA = inactive; settings: apomorphine 1mg/kg s.c.

| Molecule | IG Pressure (Basal) (intragastric pressure; at 1.0 mg/kg s.c.) | Anti-emetic (vomiting response) | CNS (Climbing) ED50 (Dopamine Receptor) | ED50 (vomiting response) [mg/kg] | CNS (Climbing) (Dopamine Receptor; at 10 mg/kg s.c.) | CNS (Climbing) (Dopamine Receptor; at 50 mg/kg s.c.) | IG Pressure (Basal) (intragastric pressure; at 5.0 mg/kg s.c.) |
| --- | --- | --- | --- | --- | --- | --- | --- |
| 5-hlethanesu-lphonylamido-2-rnethoxy-3-methyl-N-[3a-[8-benzyl-8-azabicyclo(3.2.1)octyl}]benzamide [Compound 10] | A at 1.0 | A at 0.1 |  |  |  |  |  |
| COc1cc(NS(C)(=O)=O)c(Cl)cc1C(=O)N[C@@H]1C[C@H]2CC[C@@H](C1)N2Cc1ccccc1 [Compound 1, 4-MethanGsulphonamJdo-5-ch3oro-2-methoxy-N-[3P-(8-benzyl-8-azabicyclo{3.2.1)octyl)]benzainide] | A at 1.0 |  | ED50 0.2 mg/kg s.c. | 0.02 |  |  |  |
| COc1cc(NS(C)(=O)=O)ccc1C(=O)N[C@@H]1C[C@H]2CC[C@@H](C1)N2Cc1ccccc1 [Compound 2, 4-methanesulphonamido-2-methoxy-N-[3β-(8-benzyl-8-azabicyclo(3.2.1)octyl)]benzamide] | IA at 1.0 |  |  | 0.1 | A at 10 |  |  |
| COc1cc(NS(C)(=O)=O)c(S(C)(=O)=O)cc1C(=O)N[C@@H]1C[C@H]2CC[C@@H](C1)N2Cc1ccccc1 [Compound 6, 4-Methanesulphonamido-2-methoxy-5-methylsulphonyl-N-[3β-{8-benzy1-8-azabicyclo(3.2.1)octyl)]benzamide] |  | A at 0.1 |  |  |  | IA at 50 | IA at 5.0 |
